In BindingDB's records for PubMed 1650832 (Pfizer, 1991):

Biological target: T1, Cysteinyl leukotriene receptor 2 (Cavia porcellus, UniProt Q2NNR4)
T1 sequence (Q2NNR4 whole entry): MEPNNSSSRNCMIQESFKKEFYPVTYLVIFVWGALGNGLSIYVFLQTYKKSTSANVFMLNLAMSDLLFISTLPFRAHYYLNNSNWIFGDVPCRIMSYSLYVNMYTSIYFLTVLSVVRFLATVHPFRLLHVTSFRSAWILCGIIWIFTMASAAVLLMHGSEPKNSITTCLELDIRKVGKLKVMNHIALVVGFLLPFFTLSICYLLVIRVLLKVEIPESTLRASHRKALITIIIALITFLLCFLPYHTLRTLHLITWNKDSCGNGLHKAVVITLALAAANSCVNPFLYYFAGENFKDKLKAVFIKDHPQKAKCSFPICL

Row | Ki | Structure (SMILES)
1 | 6.89 nM | COc1cc(C(=O)NS(=O)(=O)c2ccccc2)ccc1Cn1ncc2ccc(NC(=O)OC3CCCC3)cc21
2 | 0.49 nM | CCCCC/C=C\C\C=C/C=C/C=C/[C@@H](SC[C@H](N)C(=O)NCC(=O)O)[C@@H](O)CCCC(=O)O [5S-hydroxy-6R-(S-cysteinylglycinyl)-7E,9E,11E,14Z-eicosatetraenoic acid]
3 | 35.5 nM | CCCCC/C=C\C\C=C/C=C/C=C/[C@@H](SC[C@H](N)C(=O)O)[C@@H](O)CCCC(=O)O [(5S-(5R*,6S*(S*),7E,9E,11Z,14Z))-6-((2-Amino-2-carboxyethyl)thio)-5-hydroxy-7,9,11,14-eicosatetraenoic acid]
4 | 178 nM | CCCCCC=CCC=CC=CC=CC(SCC(NC(=O)CCC(N)C(=O)O)C(=O)NCC(=O)O)C(O)CCCC(=O)O (centres undefined) [CAS_5283121]
